Source: PubChem BioAssay AID1963444 (Molecular Pharmacology Branch, DTP, NCI, 2024)

Test system: HSSY-II complex spheroid growth, percent test/control
Test: Anticancer human tumor HSSY-II cell line growth inhibition [Asc];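 note: spheroids exposed to drug for 7 days before reading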
Details: for IC50: curve of first compound; for viability, T/C: stronger effect = lower value; active = viability on the fitted dose curve at most 10% of control; inactive = the rest
Procedure: Multicellular complex tumor spheroid response to apoptosis pathway targeting inhibitors Alrizomadlin, Pelcitoclax, and Dasminapant in combination with a variety of drugs and investigational agents in selected tumor cell lines
The MDM2 inhibitor alrizomadlin, the Bcl-2/Bcl-xL inhibitor pelcitoclax, and the IAPs inhibitor dasminapant were evaluated both individually and in combination with standard of care and investigational anticancer small molecules within a complex spheroid model of solid tumors. . Complex spheroids include a stromal component modeled by human endothelial cells (HUVEC) and fibroblasts modeled by human mesenchymal stem cells (MSCs). The concentration ranges selected for each drug and investigational agent were based upon clinically achievable concentrations if the clinical Cmax of the agent was known.
Compounds. The drugs and investigational agents: alrizomadlin (APG-115; NSC831270), pelcitoclax (APG-1252; NSC835773), dasminapant (APG-1387;NSC834197), TAK-243 (NSC785004), copanlisib (NSC809693), olaparib (NSC753686), talazoparib (NSC767125), cobimetinib (NSC 768068), eltanexor (KPT-8602, NSC 794443), abemaciclib (NSC 768073), sotorasib (NSC818433), adagrasib (NSC 831453), MRTX-1133 (NSC 836407), Iadademestat (ORY1001, NSC 806812), and RMC-4630 (NSC839698), were obtained from the NCI Developmental Therapeutics Program Chemical Repository. The FDA-approved anticancer drug set is available from the Developmental Therapeutics Program at https://dtp.cancer.gov/organization/dscb/obtaining/available plates.htm. […] The stock solutions were prepared in dimethyl sulfoxide (DMSO, Sigma-Aldrich, St. Louis, MO, cat. D2650) at 800-fold the tested concentration and stored at -70 degrees C prior to their use. All drugs and investigational agents were tested over a range starting from a high concentration at or near the clinical Cmax and decreasing in half-log increments. If the clinical Cmax for an agent had not been determined, the highest concentration tested was 10 microM.
The patient-derived cancer (PDC) cell lines include five colon adenocarcinomas: 186277-243-T-J2-PDC, 616215-338-R-J1-PDC, 439559-082-T-J2-PDC, 463943-066-T-J2-PDC, and 519858-162-T-J1-PDC; three pancreatic carcinomas: 323965-272-R-J2-PDC, 521955-158-R6-J3-PDC, and 521955-158-R2-J5-PDC; two uterine sarcomas: 327498-152-R-J2-PDC and 993429-296-R-J1-PDC; two rhabdomyosarcomas: 755483-174-R-J1-PDC and 772245-204-R-J1-PDC; two soft tissue sarcomas: 126254-015-R-J1-PDC and 494315-158-R-J1-PDC; two malignant fibrous histiocytomas: 317291-083-R-J1-PDC and 596521-263-R-J1-PDC; two breast carcinomas: 171881-019-R-J1-PDC and 885512-296-R-J2-PDC; and one ovarian carcinoma: 6556581-035-R-J-PDC were obtained from the NCI PDMR, (https://pdmr.cancer.gov). The established cell lines HSSY-2 synovial sarcoma (RRID:CVCL 8719), SYO-1 synovial sarcoma (RRID:CVCL_7146), MPNST malignant peripheral neural sheath tumor were obtained from the Sloan Kettering Institute. The following established cell lines were purchased from the American Type Culture Collection (ATCC, Manassas, VA), Sor the received from the NCI repository:, PANC-1 pancreatic carcinoma (CRL-1469, RRID:CVCL_0480), OVCAR-5 ovarian carcinoma (RRID:CVCL_1628), OVCAR-8 ovarian carcinoma (RRID:CVCL_1629), , MCF-7 breast carcinoma (CRL-12584, RRID:CVCL_0031), MDA-MB-231 breast carcinoma (CRL-12532, RRID:CVCL_0062), NCI-H1876 small cell lung carcinoma (CRL-5902, RRID:CVCL_1503), NCI-H510A small cell lung carcinoma (HTB-184, RRID:CVCL_1565), NCI-H1417 (CRL-5869, RRID:CVCL_1469), and NCI-H196 small cell lung carcinoma (CRL-5823, RRID:CVCL_1509). Dr. Peter Houghton (Greehey Children's Cancer Research Institute, University of Texas Health Science Center, San Antonio, TX) provided Rh-18 rhabdomyosarcoma (RRID:CVCL_1659). Pooled donor human umbilical vein endothelial cells (HUVEC, Lonza, cat. CC-2519) and human mesenchymal stem cells (hMSC, Lonza, cat. PT-2501) were purchased from Lonza (Walkersville, MD).
Cell Culture. […]

[1] = second compound 0.03 µM, first compound 0.0316 µM
[2] = second compound 0.03 µM, first compound 0.1 µM
[3] = second compound 0.0949 µM, first compound 0.0316 µM
[4] = second compound 0.0949 µM, first compound 0.1 µM
[5] = second compound 0.3 µM, first compound 0.0316 µM
[6] = second compound 0.3 µM, first compound 0.1 µM
[7] = second compound 0.949 µM, first compound 0.0316 µM
[8] = second compound 0.949 µM, first compound 0.1 µM
[9] = second compound 3 µM, first compound 0.0316 µM
[10] = second compound 3 µM, first compound 0.1 µM

Cn1ncnc1[C@H]1c2n[nH]c(=O)c3cc(F)cc(c23)N[C@@H]1c1ccc(F)cc1 + CCN1C(C(=O)NC23CCC(C(=O)O)(CC2)CC3)C(c2cccc(Cl)c2F)C2(C(=O)Nc3cc(Cl)ccc32)C12CCCCC2
2.01 nM: IC50 (second compound 0.0949 µM)
inactive: viability, T/C (second compound 0.03 µM, first compound 0.000316 µM) 91.9% | viability, T/C (second compound 0.03 µM, first compound 0.001 µM) 89.6% | viability, T/C (second compound 0.03 µM, first compound 0.00316 µM) 68.1% | viability, T/C (second compound 0.03 µM, first compound 0.01 µM) 52.8% | viability, T/C [1] 31.4% | viability, T/C [2] 19.6% | viability, T/C (second compound 0.0949 µM, first compound 0.000316 µM) 61.4% | viability, T/C (second compound 0.0949 µM, first compound 0.001 µM) 53.6% | viability, T/C (second compound 0.0949 µM, first compound 0.00316 µM) 47.1% | viability, T/C (second compound 0.0949 µM, first compound 0.01 µM) 31% | viability, T/C [3] 15.4% | viability, T/C (second compound 0.3 µM, first compound 0.000316 µM) 28.5% | viability, T/C (second compound 0.3 µM, first compound 0.001 µM) 28.6% | viability, T/C (second compound 0.3 µM, first compound 0.00316 µM) 18.2% | viability, T/C (second compound 0.3 µM, first compound 0.01 µM) 10.4%
active: viability, T/C [4] 10.2% | viability, T/C [5] 6.69% | viability, T/C [6] 5.88% | viability, T/C (second compound 0.949 µM, first compound 0.000316 µM) 8.57% | viability, T/C (second compound 0.949 µM, first compound 0.001 µM) 7.9% | viability, T/C (second compound 0.949 µM, first compound 0.00316 µM) 7.26% | viability, T/C (second compound 0.949 µM, first compound 0.01 µM) 5.4% | viability, T/C [7] 6.11% | viability, T/C [8] 6.09% | viability, T/C (second compound 3 µM, first compound 0.000316 µM) 2.41% | viability, T/C (second compound 3 µM, first compound 0.001 µM) 2.9% | viability, T/C (second compound 3 µM, first compound 0.00316 µM) 4.02% | viability, T/C (second compound 3 µM, first compound 0.01 µM) 2.59% | viability, T/C [9] 1.88% | viability, T/C [10] 4.41%
10.7 nM: IC50 (second compound 0.03 µM)
< 0.316 nM: IC50 (second compound 0.3 µM) | IC50 (second compound 0.949 µM) | IC50 (second compound 3 µM)

O=C(c1cc(Cc2n[nH]c(=O)c3ccccc23)ccc1F)N1CCN(C(=O)C2CC2)CC1 + CCN1C(C(=O)NC23CCC(C(=O)O)(CC2)CC3)C(c2cccc(Cl)c2F)C2(C(=O)Nc3cc(Cl)ccc32)C12CCCCC2
inactive: viability, T/C [1] 81.5% | viability, T/C [2] 75.1% | viability, T/C (second compound 0.03 µM, first compound 0.316 µM) 84.5% | viability, T/C (second compound 0.03 µM, first compound 1 µM) 63.6% | viability, T/C (second compound 0.03 µM, first compound 3.16 µM) 34.5% | viability, T/C (second compound 0.03 µM, first compound 10 µM) 14.1% | viability, T/C [3] 52.9% | viability, T/C [4] 52.4% | viability, T/C (second compound 0.0949 µM, first compound 0.316 µM) 47.2% | viability, T/C (second compound 0.0949 µM, first compound 1 µM) 38.5% | viability, T/C (second compound 0.0949 µM, first compound 3.16 µM) 18.7% | viability, T/C [5] 23.5% | viability, T/C [6] 20.9% | viability, T/C (second compound 0.3 µM, first compound 0.316 µM) 18.3% | viability, T/C (second compound 0.3 µM, first compound 1 µM) 15.5% | viability, T/C (second compound 0.3 µM, first compound 3.16 µM) 9.8%
< 31.6 nM: IC50 (second compound 0.3 µM) | IC50 (second compound 0.949 µM) | IC50 (second compound 3 µM)
196 nM: IC50 (second compound 0.0949 µM)
1760 nM: IC50 (second compound 0.03 µM)
active: viability, T/C (second compound 0.0949 µM, first compound 10 µM) 9.39% | viability, T/C (second compound 0.3 µM, first compound 10 µM) 6.14% | viability, T/C [7] 6.91% | viability, T/C [8] 7.91% | viability, T/C (second compound 0.949 µM, first compound 0.316 µM) 6.69% | viability, T/C (second compound 0.949 µM, first compound 1 µM) 7.17% | viability, T/C (second compound 0.949 µM, first compound 3.16 µM) 6.79% | viability, T/C (second compound 0.949 µM, first compound 10 µM) 5.66% | viability, T/C [9] 3.25% | viability, T/C [10] 2.79% | viability, T/C (second compound 3 µM, first compound 0.316 µM) 3.26% | viability, T/C (second compound 3 µM, first compound 1 µM) 2.73% | viability, T/C (second compound 3 µM, first compound 3.16 µM) 2.56% | viability, T/C (second compound 3 µM, first compound 10 µM) 3.28%
